{"source": "paper PMC11864979", "about": "“First-in-class ultralong-target-residence-time p38α inhibitors as a mitosis-targeted therapy for colorectal cancer” (Nature Cancer, 2025)", "assay_in_all_cases": "selectivity profiling in a panel of 340 wild-type kinases (Reaction Biology Europe)", "format_in_all_cases": "binding", "key": {"[1]": {"molecular_target": "T1, 340 wild-type kinases (Homo sapiens, UniProt P36894)", "T1 construct": "purchased Reaction Biology Europe", "T1 sequence (P36894 24-532)": "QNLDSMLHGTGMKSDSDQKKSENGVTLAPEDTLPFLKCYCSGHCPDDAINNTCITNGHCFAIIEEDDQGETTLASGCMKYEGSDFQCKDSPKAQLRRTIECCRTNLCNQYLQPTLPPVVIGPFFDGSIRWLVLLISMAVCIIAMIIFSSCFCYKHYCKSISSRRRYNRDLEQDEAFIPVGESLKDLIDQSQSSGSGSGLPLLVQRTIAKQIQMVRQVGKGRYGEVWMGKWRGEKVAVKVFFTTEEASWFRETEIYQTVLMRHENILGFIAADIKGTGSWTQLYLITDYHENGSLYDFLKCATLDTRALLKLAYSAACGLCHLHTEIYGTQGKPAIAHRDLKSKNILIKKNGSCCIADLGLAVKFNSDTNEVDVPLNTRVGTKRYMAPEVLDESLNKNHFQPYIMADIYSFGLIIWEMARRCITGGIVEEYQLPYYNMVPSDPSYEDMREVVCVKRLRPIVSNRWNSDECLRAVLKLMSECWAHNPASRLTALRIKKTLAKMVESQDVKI"}, "[2]": {"molecular_target": "T2, 340 wild-type kinases (Homo sapiens, UniProt P54753)", "T2 construct": "purchased Reaction Biology Europe", "T2 sequence (P54753 34-998)": "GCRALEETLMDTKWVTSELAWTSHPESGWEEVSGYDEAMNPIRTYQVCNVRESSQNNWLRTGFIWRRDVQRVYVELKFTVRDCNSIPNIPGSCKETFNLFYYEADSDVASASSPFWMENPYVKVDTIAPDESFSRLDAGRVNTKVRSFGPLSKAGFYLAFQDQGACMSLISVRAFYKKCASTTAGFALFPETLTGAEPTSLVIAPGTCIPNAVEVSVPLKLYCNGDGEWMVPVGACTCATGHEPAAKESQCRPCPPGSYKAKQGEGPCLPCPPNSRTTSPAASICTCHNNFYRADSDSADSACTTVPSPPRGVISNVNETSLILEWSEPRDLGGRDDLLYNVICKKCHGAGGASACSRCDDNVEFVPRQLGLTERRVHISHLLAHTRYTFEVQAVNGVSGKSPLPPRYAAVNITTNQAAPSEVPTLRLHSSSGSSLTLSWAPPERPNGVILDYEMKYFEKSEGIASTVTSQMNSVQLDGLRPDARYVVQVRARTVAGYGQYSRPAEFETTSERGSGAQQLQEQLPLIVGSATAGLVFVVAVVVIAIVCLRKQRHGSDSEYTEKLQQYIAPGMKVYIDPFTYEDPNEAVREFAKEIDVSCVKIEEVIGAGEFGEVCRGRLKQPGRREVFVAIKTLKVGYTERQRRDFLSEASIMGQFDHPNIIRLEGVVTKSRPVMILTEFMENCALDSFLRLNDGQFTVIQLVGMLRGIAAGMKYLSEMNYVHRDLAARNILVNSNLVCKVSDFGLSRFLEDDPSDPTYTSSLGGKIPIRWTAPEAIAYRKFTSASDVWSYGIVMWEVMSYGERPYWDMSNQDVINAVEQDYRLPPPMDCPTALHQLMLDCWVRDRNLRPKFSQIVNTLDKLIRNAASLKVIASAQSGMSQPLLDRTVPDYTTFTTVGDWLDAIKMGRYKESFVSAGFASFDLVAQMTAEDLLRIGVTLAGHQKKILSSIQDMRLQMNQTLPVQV"}, "[3]": {"molecular_target": "T3, 340 wild-type kinases (Homo sapiens, UniProt P42684)", "T3 construct": "purchased Reaction Biology Europe", "T3 sequence (P42684 whole entry)": "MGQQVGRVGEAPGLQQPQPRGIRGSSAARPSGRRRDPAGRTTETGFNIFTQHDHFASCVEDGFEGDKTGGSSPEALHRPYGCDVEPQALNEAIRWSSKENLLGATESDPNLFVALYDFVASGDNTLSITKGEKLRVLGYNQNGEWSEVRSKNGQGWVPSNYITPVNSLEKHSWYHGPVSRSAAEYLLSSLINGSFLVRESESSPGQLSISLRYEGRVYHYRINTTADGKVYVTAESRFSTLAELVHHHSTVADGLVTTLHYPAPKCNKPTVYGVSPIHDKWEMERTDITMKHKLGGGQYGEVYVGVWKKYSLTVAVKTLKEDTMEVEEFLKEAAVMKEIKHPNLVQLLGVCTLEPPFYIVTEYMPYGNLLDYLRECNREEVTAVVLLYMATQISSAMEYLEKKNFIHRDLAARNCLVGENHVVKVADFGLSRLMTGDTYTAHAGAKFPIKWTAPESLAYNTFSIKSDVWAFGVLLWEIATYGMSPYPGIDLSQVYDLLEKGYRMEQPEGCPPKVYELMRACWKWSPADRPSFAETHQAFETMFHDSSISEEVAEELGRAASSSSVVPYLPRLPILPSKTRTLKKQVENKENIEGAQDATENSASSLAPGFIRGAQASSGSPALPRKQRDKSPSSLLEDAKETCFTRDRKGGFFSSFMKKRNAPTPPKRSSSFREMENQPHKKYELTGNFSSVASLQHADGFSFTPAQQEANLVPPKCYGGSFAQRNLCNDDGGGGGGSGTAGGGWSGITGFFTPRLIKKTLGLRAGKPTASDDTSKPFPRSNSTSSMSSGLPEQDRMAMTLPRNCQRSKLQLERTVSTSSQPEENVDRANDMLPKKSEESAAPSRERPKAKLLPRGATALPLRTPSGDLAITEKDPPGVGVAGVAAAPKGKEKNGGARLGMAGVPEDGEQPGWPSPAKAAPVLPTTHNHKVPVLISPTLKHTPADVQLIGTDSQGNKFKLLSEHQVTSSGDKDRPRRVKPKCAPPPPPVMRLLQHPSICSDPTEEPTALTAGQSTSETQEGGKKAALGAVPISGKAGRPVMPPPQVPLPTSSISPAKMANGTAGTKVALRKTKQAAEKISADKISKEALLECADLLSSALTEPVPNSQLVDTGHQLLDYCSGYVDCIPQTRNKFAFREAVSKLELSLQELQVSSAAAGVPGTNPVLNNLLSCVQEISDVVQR"}, "[4]": {"molecular_target": "T4, 340 wild-type kinases (Homo sapiens, UniProt Q9UIK4)", "T4 construct": "purchased Reaction Biology Europe", "T4 sequence (Q9UIK4 whole entry)": "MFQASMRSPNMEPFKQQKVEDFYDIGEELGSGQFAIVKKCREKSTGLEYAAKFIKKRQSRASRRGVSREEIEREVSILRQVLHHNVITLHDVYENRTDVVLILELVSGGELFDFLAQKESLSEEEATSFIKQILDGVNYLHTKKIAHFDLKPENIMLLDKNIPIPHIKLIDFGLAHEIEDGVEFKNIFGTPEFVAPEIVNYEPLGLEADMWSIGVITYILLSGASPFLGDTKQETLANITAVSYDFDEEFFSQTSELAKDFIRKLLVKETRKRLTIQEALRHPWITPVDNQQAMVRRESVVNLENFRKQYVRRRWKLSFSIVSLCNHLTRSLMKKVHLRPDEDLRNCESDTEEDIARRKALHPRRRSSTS"}, "[5]": {"molecular_target": "T5, 340 wild-type kinases (Homo sapiens, UniProt Q9UHD2)", "T5 construct": "purchased Reaction Biology Europe", "T5 sequence (Q9UHD2 1-729)": "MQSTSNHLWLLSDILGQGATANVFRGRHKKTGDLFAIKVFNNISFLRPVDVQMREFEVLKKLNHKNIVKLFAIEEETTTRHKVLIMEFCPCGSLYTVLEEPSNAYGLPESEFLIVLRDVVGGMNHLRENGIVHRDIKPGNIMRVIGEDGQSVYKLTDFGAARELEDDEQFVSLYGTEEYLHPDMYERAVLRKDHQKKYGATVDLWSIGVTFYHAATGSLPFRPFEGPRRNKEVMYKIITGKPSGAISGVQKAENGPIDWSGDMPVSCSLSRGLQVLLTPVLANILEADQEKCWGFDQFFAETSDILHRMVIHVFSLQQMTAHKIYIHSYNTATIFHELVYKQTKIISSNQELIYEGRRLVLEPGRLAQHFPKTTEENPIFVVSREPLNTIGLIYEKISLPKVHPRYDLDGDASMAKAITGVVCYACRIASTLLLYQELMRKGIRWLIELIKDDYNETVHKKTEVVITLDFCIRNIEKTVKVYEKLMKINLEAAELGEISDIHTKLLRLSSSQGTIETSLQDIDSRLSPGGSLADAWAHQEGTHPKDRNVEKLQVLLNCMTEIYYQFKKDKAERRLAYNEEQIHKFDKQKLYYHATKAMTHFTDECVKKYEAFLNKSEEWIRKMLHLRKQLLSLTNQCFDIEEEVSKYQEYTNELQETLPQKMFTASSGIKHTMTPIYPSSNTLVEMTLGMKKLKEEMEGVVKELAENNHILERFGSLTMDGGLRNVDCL"}, "[6]": {"molecular_target": "T6, 340 wild-type kinases (Homo sapiens, UniProt P15735)", "T6 construct": "purchased Reaction Biology Europe", "T6 sequence (P15735 1-406)": "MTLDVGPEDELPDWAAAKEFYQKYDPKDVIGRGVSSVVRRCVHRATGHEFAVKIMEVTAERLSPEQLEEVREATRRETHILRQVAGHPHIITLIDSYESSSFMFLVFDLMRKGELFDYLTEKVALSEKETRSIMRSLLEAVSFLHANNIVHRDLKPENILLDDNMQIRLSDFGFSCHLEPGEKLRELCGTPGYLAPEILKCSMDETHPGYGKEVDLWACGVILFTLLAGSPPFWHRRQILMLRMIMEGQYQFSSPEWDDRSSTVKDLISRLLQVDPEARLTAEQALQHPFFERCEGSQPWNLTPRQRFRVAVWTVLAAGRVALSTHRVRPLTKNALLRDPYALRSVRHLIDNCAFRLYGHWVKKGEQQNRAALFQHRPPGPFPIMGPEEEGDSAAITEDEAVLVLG"}}, "note": "Read-outs that look alike come from different tables or passages of the source."}
{"smiles": "CNC(=O)c1ccc2c(c1)C(=O)c1ccc(Nc3ccc(F)c(NC(=O)C4CC4)c3)cc1CC2", "note": "[Compound 2015]", "values": [{"measurement": "remaining activity at 0.2 µM", "setting": "[1]; 0.2 µM 2015, read-out: BMPR1A residual activity", "result": 95.6, "unit": "%"}, {"measurement": "remaining activity at 1 µM", "setting": "[1]; 1 µM 2015, read-out: BMPR1A residual activity", "result": 98.5, "unit": "%"}, {"measurement": "remaining activity at 0.2 µM", "setting": "[1]; BMPR1A, 0.2 µM, read-out: residual activity", "result": 95.6, "unit": "%"}, {"measurement": "remaining activity at 1 µM", "setting": "[1]; BMPR1A, 1 µM, read-out: residual activity", "result": 98.5, "unit": "%"}, {"measurement": "remaining activity at 0.2 µM", "setting": "[2]; 0.2 µM 2015, read-out: EPHB3 residual activity", "result": 97.2, "unit": "%"}, {"measurement": "remaining activity at 1 µM", "setting": "[2]; 1 µM 2015, read-out: EPHB3 residual activity", "result": 96.8, "unit": "%"}, {"measurement": "remaining activity at 0.2 µM", "setting": "[2]; EPHB3, 0.2 µM, read-out: residual activity", "result": 97.2, "unit": "%"}, {"measurement": "remaining activity at 1 µM", "setting": "[2]; EPHB3, 1 µM, read-out: residual activity", "result": 96.8, "unit": "%"}, {"measurement": "remaining activity at 0.2 µM", "setting": "[3]; 0.2 µM 2015, read-out: ABL2 residual activity", "result": 107, "unit": "%"}, {"measurement": "remaining activity at 1 µM", "setting": "[3]; 1 µM 2015, read-out: ABL2 residual activity", "result": 102, "unit": "%"}, {"measurement": "remaining activity at 0.2 µM", "setting": "[3]; ABL2, 0.2 µM, read-out: residual activity", "result": 107, "unit": "%"}, {"measurement": "remaining activity at 1 µM", "setting": "[3]; ABL2, 1 µM, read-out: residual activity", "result": 102, "unit": "%"}, {"measurement": "remaining activity at 0.2 µM", "setting": "[4]; 0.2 µM 2015, read-out: DAPK2 residual activity", "result": 116, "unit": "%"}, {"measurement": "remaining activity at 1 µM", "setting": "[4]; 1 µM 2015, read-out: DAPK2 residual activity", "result": 100, "unit": "%"}, {"measurement": "remaining activity at 0.2 µM", "setting": "[4]; DAPK2, 0.2 µM, read-out: residual activity", "result": 116, "unit": "%"}, {"measurement": "remaining activity at 1 µM", "setting": "[4]; DAPK2, 1 µM, read-out: residual activity", "result": 100, "unit": "%"}, {"measurement": "remaining activity at 0.2 µM", "setting": "[5]; 0.2 µM 2015, read-out: TBK1 residual activity", "result": 120, "unit": "%"}, {"measurement": "remaining activity at 1 µM", "setting": "[5]; 1 µM 2015, read-out: TBK1 residual activity", "result": 101, "unit": "%"}, {"measurement": "remaining activity at 0.2 µM", "setting": "[5]; TBK1, 0.2 µM, read-out: residual activity", "result": 120, "unit": "%"}, {"measurement": "remaining activity at 1 µM", "setting": "[5]; TBK1, 1 µM, read-out: residual activity", "result": 101, "unit": "%"}, {"measurement": "remaining activity at 0.2 µM", "setting": "[6]; 0.2 µM 2015, read-out: PHKG2 residual activity", "result": 102, "unit": "%"}, {"measurement": "remaining activity at 1 µM", "setting": "[6]; 1 µM 2015, read-out: PHKG2 residual activity", "result": 98.8, "unit": "%"}, {"measurement": "remaining activity at 0.2 µM", "setting": "[6]; PHKG2, 0.2 µM, read-out: residual activity", "result": 102, "unit": "%"}, {"measurement": "remaining activity at 1 µM", "setting": "[6]; PHKG2, 1 µM, read-out: residual activity", "result": 98.8, "unit": "%"}]}
